Laboratory results reported in US20150337013A1, “NOVEL ANTIBACTERIAL AGENTS FOR THE TREATMENT OF GRAM POSITIVE INFECTIONS” (priority 2008, published 2015).
Values joined by “and” are separate entries in the source; they are usually repeats but may differ in a detail not shown here. Equal entries are not always repeated.

Key:
[1] = test system: Enterococcus faecalis EFS.201 (ATCC 49452); assay type: cell-based; conditions: ATCC 49452
Outline: (§1)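 Susceptibility is measured by modified CLSI broth microdilution using calcium-supplemented Mueller Hinton broth (50 mg/L) and an inoculum of 5×10^5 bacteria. MIC values in μg/mL mark the lowest concentration that leaves no visible turbidity.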

[2] = test system: Enterococcus faecium EFM.384, Daptomycin resistant mutant (14-A); assay type: cell-based; conditions: MHBc with 50 mg/L calcium, 18-20 hours at 37° C.
Outline: as §1

[3] = test system: Staphylococcus aureus SAU.399 (ATCC 43300), Methicillin and Oxacillin Resistant; assay type: cell-based; conditions: MHBc with 50 mg/L calcium, 18-20 hours at 37° C.
Outline: as §1

[4] = test system: Staphylococcus aureus SAU.42 (ATCC 29213); assay type: cell-based; conditions: ATCC 29213
Outline: as §1

[5] = test system: C. difficile spores (ATCC #43596); assay: Hamster C. difficile infection (CDAD) protection model; assay type: in vivo, Syrian golden hamsters; conditions: oral 0.5 mg/kg once daily for 5 days (MET 70 mg/kg three times daily for 5 days)
Experimental: Syrian golden hamsters were pretreated with 10 mg/kg clindamycin subcutaneously 24 hours before bacterial challenge. An inoculum of 20 C. difficile spores (ATCC #43596) in sterile saline was administered orally. Treatment was initiated 4 hours post-inoculation with dH2O, metronidazole (MET), vancomycin (VAN), or a compound of the present invention. Oral dosing regimens for VAN and compounds of Formula I were 0.5 mg/kg once daily for 5 days. MET was administered at 70 mg/kg three times daily for 5 days. CDAD was confirmed as the cause of death by observations at necropsy, including wet tail and/or macroscopic cecal alterations. The % protection provided by each therapy tested was calculated at 1 and 21 days post-dosing.

gram positive bacteria = assay: Antimicrobial activity against a panel of organisms, summary statements; assay type: cell-based; conditions: statement in words
Experimental: (§2) Compounds according to Formula I were tested for antimicrobial activity against a panel of organisms. Aerobic organisms, Staphylococcus aureus, Enterococcus faecalis and E. faecium, were tested by broth microdilution according to Clinical and Laboratory Standards Institute (CLSI) document M7-A7 (Clinical and Laboratory Standards Institute. Methods for Dilution Antimicrobial Susceptibility Tests for Bacteria that Grow Aerobically; Approved Standard—Seventh Edition. CLSI document M7-A7 [ISBN 1-56238-587-9]. Clinical and Laboratory Standards Institute, 940 West Valley Road, Suite 1400, Wayne, Pa. 19087-1898 USA, 2006) with modifications as described below. Mueller Hinton Broth (MHBc) was supplemented with 50 mg/L calcium (equivalent to human physiological levels of calcium) and assay plates were incubated 18-20 hours at 37° C. with aeration (200 rpm).
(§3) In all cases the final concentration of dimethyl sulfoxide incubated with cells is less than or equal to 1%. For minimum inhibitory concentration (MIC) calculations, 2-fold dilutions of compounds were added to wells of a microtiter plate containing 5×10^5 bacteria in a final volume of 100 μL of media. Following incubation, (18-20 hours at 37° C. with aeration at 200 rpm) growth was confirmed visually by placing plates over a viewing apparatus (stand with a mirror underneath) and then the optical density (OD600) was measured using a SpectraMax 340PC^384 plate reader. Growth was defined as turbidity that could be detected with the naked eye or achieving minimum OD600of 0.1. MIC values (in μg/mL) were defined as the lowest concentration producing no visible turbidity.

[6] = test system: daptomycin resistant Staph. aureus (DRSA), daptomycin resistant E. faecium (DREfm) and daptomycin resistance E. faecalis (DREfs); assay: Activity against daptomycin resistant bacteria, summary statement; assay type: cell-based; conditions: statement in words
Experimental: as §2, §3

[7] = test system: Enterococcus faecalis EFS.312, Daptomycin resistant mutant (EFA); assay type: cell-based; conditions: MHBc with 50 mg/L calcium, 18-20 hours at 37° C.
Outline: as §1

[8] = test system: Staphylococcus aureus SAU.278, Daptomycin resistant mutant (D10); assay type: cell-based; conditions: MHBc with 50 mg/L calcium, 18-20 hours at 37° C.
Outline: as §1

[9] = test system: NAP1 Clostridium difficile strain

| Structure (SMILES) | Efs201 MIC [1] [µg/mL] | Efm384 MIC [2] | Sa399 MIC [3] [µg/mL] | Sa42 MIC [4] [µg/mL] | Mean % Protection 1 Day Post Dosing [5] [%] | Mean % Protection 21 Days Post Dosing [5] [%] | as active or more active than daptomycin (gram positive bacteria) | more active against bacteria than daptomycin (gram positive bacteria) | useful against daptomycin resistant strains of bacteria [6] | C. diff MIC90 (Clostridium difficile) [µg/mL] | Efs312 MIC [7] | Sa278 MIC [8] [µg/mL] | C. diff MIC50 Nap-1 [9] [µg/mL] | C. diff MIC90 Nap-1 [9] [µg/mL] |
| --- | --- | --- | --- | --- | --- | --- | --- | --- | --- | --- | --- | --- | --- | --- |
| CCCCCCCc1ccc(C(=O)N[C@@H](Cc2c[nH]c3ccccc23)C(=O)N[C@H](CC(N)=O)C(=O)N[C@@H](CC(=O)O)C(=O)N[C@@H]2C(=O)NCC(=O)N[C@@H](CCCN)C(=O)N[C@@H](CC(=O)O)C(=O)N[C@H](C)C(=O)N[C@@H](CC(=O)O)C(=O)NCC(=O)N[C@H](CO)C(=O)N[C@@H]([C@H](C)CC(=O)O)C(=O)N[C@@H](CC(=O)c3ccccc3N)C(=O)O[C@@H]2C)cc1 [Compound 33, N-(4-heptylbenzoyl)-L-tryptophyl-D-asparaginyl-L-α-aspartyl-L-threonylglycyl-L-ornithyl-L-α-aspartyl-D-alanyl-L-α-aspartylglycyl-D-seryl-(3R)-3-methyl-L-α-glutamyl-(αS)-α,2-diamino-γ-oxobenzenebutanoic acid (13→4)-lactone] | 0.5 | 4 µg/mL and 2 µg/mL | 0.125 | 0.25 | 85 | 69 | as active or more active than daptomycin | more effective than daptomycin | useful against daptomycin resistant strains of bacteria | – | – | – | – | – |
| CCCCCC12CCC(C(=O)N[C@@H](Cc3c[nH]c4ccccc34)C(=O)N[C@H](CC(N)=O)C(=O)N[C@@H](CC(=O)O)C(=O)N[C@@H]3C(=O)NCC(=O)N[C@@H](CCCN)C(=O)N[C@@H](CC(=O)O)C(=O)N[C@H](C)C(=O)N[C@@H](CC(=O)O)C(=O)NCC(=O)N[C@H](CO)C(=O)N[C@@H]([C@H](C)CC(=O)O)C(=O)N[C@@H](CC(=O)c4ccccc4N)C(=O)O[C@@H]3C)(CC1)CC2 [Compound 22, N-(4-pentylbicyclo[2.2.2]octane-1-carbonyl)-L-tryptophyl-D-asparaginyl-L-α-aspartyl-L-threonylglycyl-L-ornithyl-L-α-aspartyl-D-alanyl-L-α-aspartylglycyl-D-seryl-(3R)-3-methyl-L-α-glutamyl-(αS)-α,2-diamino-γ-oxobenzenebutanoic acid (13→4)-lactone] | – | – | – | – | 85 | 38 | as active or more active than daptomycin | – | useful against daptomycin resistant strains of bacteria | 1 | – | – | – | – |
| CCCCCCC1CCC(c2ccc(C(=O)N[C@@H](Cc3c[nH]c4ccccc34)C(=O)N[C@H](CC(N)=O)C(=O)N[C@@H](CC(=O)O)C(=O)N[C@@H]3C(=O)NCC(=O)N[C@@H](CCCN)C(=O)N[C@@H](CC(=O)O)C(=O)N[C@H](C)C(=O)N[C@@H](CC(=O)O)C(=O)NCC(=O)N[C@H](CO)C(=O)N[C@@H]([C@H](C)CC(=O)O)C(=O)N[C@@H](CC(=O)c4ccccc4N)C(=O)O[C@@H]3C)cc2)CC1 (stereo partly drawn) [Compound 54, N-[4-(−4-hexylcyclohexyl)benzoyl]-L-tryptophyl-D-asparaginyl-L-α-aspartyl-L-threonylglycyl-L-ornithyl-L-α-aspartyl-D-alanyl-L-α-aspartylglycyl-D-seryl-(3R)-3-methyl-L-α-glutamyl-(αS)-α,2-diamino-γ-oxobenzenebutanoic acid (13→4)-lactone] | – | – | – | – | 0 | 0 | as active or more active than daptomycin | more effective than daptomycin | useful against daptomycin resistant strains of bacteria | – | – | – | – | – |
| CCCCCCCCc1ccc(C(=O)N[C@@H](Cc2c[nH]c3ccccc23)C(=O)N[C@H](CC(N)=O)C(=O)N[C@@H](CC(=O)O)C(=O)N[C@@H]2C(=O)NCC(=O)N[C@@H](CCCN)C(=O)N[C@@H](CC(=O)O)C(=O)N[C@H](C)C(=O)N[C@@H](CC(=O)O)C(=O)NCC(=O)N[C@H](CO)C(=O)N[C@@H]([C@H](C)CC(=O)O)C(=O)N[C@@H](CC(=O)c3ccccc3N)C(=O)O[C@@H]2C)cc1 [Compound 34, N-(4-octylbenzoyl)-L-tryptophyl-D-asparaginyl-L-α-aspartyl-L-threonylglycyl-L-ornithyl-L-α-aspartyl-D-alanyl-L-α-aspartylglycyl-D-seryl-(3R)-3-methyl-L-α-glutamyl-(αS)-α,2-diamino-γ-oxobenzenebutanoic acid (13→4)-lactone] | – | 2 µg/mL and 4 µg/mL | – | – | 85 | 38 | as active or more active than daptomycin | more effective than daptomycin | useful against daptomycin resistant strains of bacteria | 1 | 4 µg/mL and 8 µg/mL | – | – | – |
| CCCCCc1ccc(/C(C)=C/C(=O)N[C@@H](Cc2c[nH]c3ccccc23)C(=O)N[C@H](CC(N)=O)C(=O)N[C@@H](CC(=O)O)C(=O)N[C@@H]2C(=O)NCC(=O)N[C@@H](CCCN)C(=O)N[C@@H](CC(=O)O)C(=O)N[C@H](C)C(=O)N[C@@H](CC(=O)O)C(=O)NCC(=O)N[C@H](CO)C(=O)N[C@@H]([C@H](C)CC(=O)O)C(=O)N[C@@H](CC(=O)c3ccccc3N)C(=O)O[C@@H]2C)cc1 [Compound 49, N-{1-[(E)-3-(4-pentylphenyl)but-2-enoyl]}-L-tryptophyl-D-asparaginyl-L-α-aspartyl-L-threonylglycyl-L-ornithyl-L-α-aspartyl-D-alanyl-L-α-aspartylglycyl-D-seryl-(3R)-3-methyl-L-α-glutamyl-(αS)-α,2-diamino-γ-oxobenzenebutanoic acid (13→4)-lactone] | – | 4 µg/mL | – | – | – | – | – | – | – | – | 8 µg/mL and 4 µg/mL | 1 | 0.25 | 0.50 |
